Data reported in paper PMC8961551, “Potential Anticancer Agents against Melanoma Cells Based on an As-Synthesized Thiosemicarbazide Derivative” (Biomolecules, 2022).
Like-named read-outs stand apart in the source and are kept apart here.

How the values were obtained:
[1] = system: G-361 melanoma; experiment: MTT cytotoxicity, G-361 melanoma; format: cell-based, human; conditions: for IC50: MTT test, 24 h treatment, G-361 melanoma; for cytotoxic to melanoma cells (MTT test): G-361, concentration range used
Procedure: (§1) Biological studies were performed on human malignant melanoma G-361 (ATCC CRL-1424) cell lines and human fibroblast BJ (ATCC® CRL-2522™) cell lines purchased from the American Type Culture Collection (ATCC, Manassas, VA USA). The G-361 cell lines were maintained in McCoy’s medium (Corning, NY, USA), and the fibroblast BJ cell line was cultured in EMEM (Corning, NY, USA). All media were supplemented with 10% heat-inactivated fetal bovine serum (PAN-Biotech, Aidenbach, Germany), 100 U/mL penicillin, 100 μg/mL streptomycin and 0.25 μg/mL amphotericin B (Sigma-Aldrich, St. Louis, MO, USA). Cultures were maintained at 37 °C in a humidified atmosphere of 95% air and 5% CO2. The experiments were performed using cells from passage 5 to 10.
(§2) The cytotoxicity of the new compounds was evaluated against both the G-361 and BJ cell lines. Cells were seeded into 96-well plates at a density of 3 × 10^4 cells/well and 2 × 10^4 cells/well. After 24 h of incubation, when 70–80% confluence was reached, the culture medium was removed and replaced with the fresh one containing the tested compounds in the concentration range of 10, 25, 50, 75, 100, 125 and 250 μM. Cells were cultured at 37 °C in the presence of 5% air with CO2 for another 24 h. The cytotoxicity of the test compounds was evaluated by the MTT colorimetric assay, based on the ability of live cells to convert yellow soluble tetrazolium salts (3-[4,5-dimethylthiazol-2-yl]- 2,5-diphenyltetrazolium bromide, MTT) to purple insoluble formazan by cellular dehydrogenase. After 24 h of incubation with solutions of the test compounds, 4 mg/mL MTT solution (Thermo Scientific, Waltham, MA, USA) was added to the cell cultures and incubation was continued for 4 h at 37 °C. The MTT medium was then removed, and the resulting crystals were dissolved in 200 µL of DMSO. The solution was measured for absorbance at 570 nm using a Power Wave xs spectrophotometric plate reader, BioTek Instruments (Winooski, VT, USA). The experiment was performed three times with three replicates for each concentration. IC50 values were determined using the AAT Bioquest IC50 calculator.

[2] = system: BJ normal fibroblast cell line; experiment: MTT cytotoxicity, BJ normal fibroblasts; format: cell-based, human; conditions: MTT test, 24 h treatment, BJ normal fibroblasts, concentration range 10-250 µM, read-out: IC50 BJ
Procedure: as §1, §2

[3] = RP-HPLC lipophilicity; format: physicochemical; conditions: for logkW (chromatographic lipophilicity parameter): Kinetex C18, methanol-water 55-80%, extrapolated to 0% methanol; for -S HPLC (slope of linear equation): Table S3
Procedure: RP-HPLC analysis was performed using a Merck-Hitachi LaChrom Elite System (Merck, Darmstadt, Germany) with diode array detector L-2455, thermostat L-2300, pump L-2130 and autosampler L-2200 with a Kinetex C18 (5µm; 150 × 4,6mm) chromatographic column (Phenomenex, Torrance, USA) as the stationary phase. The mobile phase consisted of methanol (Merck, Darmstadt, Germany) and water (double-distilled), which was degassed by use of the built-in membrane degasser. Subsequently, 5 μL methanolic solution (0.1%; m/v) of the selected samples was applied to the chromatographic column by use of a Hitachi L-2200 autosampler (LaChrom Elite, Hitachi-Merck, Darmstadt, Germany). The analysis was performed with a flow rate of 0.7 mL min^−1 in isocratic mode using various concentrations of organic modifier (methanol) in binary polar mobile phases; percentages of methanol in water were 55–80% (%, v/v) and changed by 5% per step. Chromatograms were detected at 254 nm and the temperature of the column was 25 °C. All experiments were repeated in triplicate and the final results were taken to be the arithmetic means. Dead time was measured using uracil (Calbiochem. Merck, Darmstadt, Germany).

[4] = RP-TLC lipophilicity; format: physicochemical; conditions: for RMW (chromatographic lipophilicity parameter): RP-18 plates, methanol-water 65-95%, extrapolated to 0% methanol; for -S TLC (slope of linear equation): Table S3
Procedure: RP-TLC analysis was performed using RP-18 TLC silica gel 60 F254 plates (10 × 20 cm, Merck, Darmstadt, Germany) with a DS-II chromatographic horizontal chamber (CHROMDES, Lublin, Poland). The mobile phase consisted of methanol (POCH, Gliwice, Poland) and water with the following concentrations of methanol: 65–95% (%, v/v), with a concentration change every 5%. After drying, the spots were observed under a UV lamp with a wavelength of 254 nm.

Compound: 1-[[2-(2,4-Dichlorophenoxy)acetyl]amino]-3-[4-[[[2-(2,4-dichlorophenoxy)acetyl]amino]carbamoylamino]phenyl]thiourea [PK13]
- IC50 [1]: > 250 µM
- IC50 [2]: > 250 µM

Compound: O=C(COc1ccc(Cl)cc1Cl)NNC(=S)Nc1ccc([N+](=O)[O-])cc1 [PK3, 1-(2,4-dichlorophenoxy)acetyl-4-(4-nitrophenyl)thiosemicarbazide]
- IC50 [1]: > 250 µM
- IC50 [2]: > 250 µM
- logkW (chromatographic lipophilicity parameter) [3]: 2.7667
- -S HPLC (slope of linear equation) [3]: 3.8522
- RMW (chromatographic lipophilicity parameter) [4]: 2.4459
- -S TLC (slope of linear equation) [4]: 2.9474

Compound: O=C(COc1ccc(Cl)cc1Cl)NNC(=S)Nc1cccc(F)c1 [PK10, 1-(2,4-dichlorophenoxy)acetyl-4-(3-fluorophenyl)thiosemicarbazide]
- cytotoxic to melanoma cells (MTT test) [1]: cytotoxic
- IC50 [1]: 218 ± 5.34 µM
- IC50 [2]: 223 ± 7 µM

Compound: O=C(COc1ccc(Cl)cc1Cl)NNC(=S)Nc1cccc(Br)c1 [PK8, 1-(2,4-dichlorophenoxy)acetyl-4-(3-bromophenyl)thiosemicarbazide]
- IC50 [1]: > 250 µM
- IC50 [2]: > 250 µM

Compound: O=C(COc1ccc(Cl)cc1Cl)NNC(=S)Nc1ccc(Br)cc1 [PK12, 1-(2,4-dichlorophenoxy)acetyl-4-(4-bromophenyl)thiosemicarbazide]
- cytotoxic to melanoma cells (MTT test) [1]: cytotoxic
- IC50 [2]: 189 ± 7 µM
- logkW (chromatographic lipophilicity parameter) [3]: 4.3897
- -S HPLC (slope of linear equation) [3]: 5.8565
- RMW (chromatographic lipophilicity parameter) [4]: 3.5706
- -S TLC (slope of linear equation) [4]: 4.1984

Compound: O=C(COc1ccc(Cl)cc1Cl)NNC(=S)Nc1ccc(I)cc1 [PK7, 1-(2,4-dichlorophenoxy)acetyl-4-(4-iodophenyl)thiosemicarbazide]
- cytotoxic to melanoma cells (MTT test) [1]: cytotoxic
- IC50 ([1]; Homo sapiens): 99 ± 4 µM
- IC50 ([2]; Homo sapiens, Fibroblast): 216 ± 76 µM
- logkW (chromatographic lipophilicity parameter) [3]: 4.5363
- -S HPLC (slope of linear equation) [3]: 5.9005
- RMW (chromatographic lipophilicity parameter) [4]: 3.8527
- -S TLC (slope of linear equation) [4]: 4.4553

Compound: O=C(COc1ccc(Cl)cc1Cl)NNC(=S)Nc1cccc(I)c1 [PK4, 1-(2,4-dichlorophenoxy)acetyl-4-(3-iodophenyl)thiosemicarbazide]
- IC50 [1]: > 250 µM
- IC50 [2]: > 250 µM

Compound: O=C(COc1ccc(Cl)cc1Cl)NNC(=S)Nc1ccccc1F [PK1, 1-(2,4-dichlorophenoxy)acetyl-4-(2-fluorophenyl)thiosemicarbazide]
- IC50 ([1]; Homo sapiens): > 250 µM
- IC50 ([2]; Homo sapiens, Fibroblast): > 250 µM
- logkW (chromatographic lipophilicity parameter) [3]: 3.4437
- -S HPLC (slope of linear equation) [3]: 4.9238
- RMW (chromatographic lipophilicity parameter) [4]: 2.6706
- -S TLC (slope of linear equation) [4]: 3.1923

Compound: O=C(COc1ccc(Cl)cc1Cl)NNC(=S)Nc1ccc(F)cc1 [PK5, 1-(2,4-dichlorophenoxy)acetyl-4-(4-fluorophenyl)thiosemicarbazide]
- IC50 [1]: > 250 µM
- IC50 [2]: > 250 µM
- logkW (chromatographic lipophilicity parameter) [3]: 3.8993
- -S HPLC (slope of linear equation) [3]: 5.5119
- RMW (chromatographic lipophilicity parameter) [4]: 2.7612
- -S TLC (slope of linear equation) [4]: 3.4335

Compound: O=C(COc1ccc(Cl)cc1Cl)NNC(=S)Nc1ccccc1Br [PK11, 1-(2,4-dichlorophenoxy)acetyl-4-(2-bromophenyl)thiosemicarbazide]
- cytotoxic to melanoma cells (MTT test) [1]: cytotoxic
- IC50 [1]: 162 ± 2 µM
- IC50 [2]: 217 ± 64.3 µM
- logkW (chromatographic lipophilicity parameter) [3]: 3.93
- -S HPLC (slope of linear equation) [3]: 5.3438
- RMW (chromatographic lipophilicity parameter) [4]: 2.7832
- -S TLC (slope of linear equation) [4]: 3.3663
